Literature values, collected in patent publication US20040259949A1, “Method” (priority 2001, published 2004).

What was measured:
[1] = mice
[2] = rat model

Compound | effect of PDT on viability of normal human fibroblasts (normal human fibroblasts) | effect of PDT on healing of colonic anastomosis [1] | influence of PDT on skin wound healing [2]
NCC(=O)CCC(=O)O [5-ALA, 5-amino-4-oxo-pentanoic acid] | no effect on viability of normal human fibroblasts | no significant impairment in healing of colonic anastomosis | 
benzoporphyrin derivative monoacid ring A [BDP-MA] |  |  | did not influence skin wound healing
